# Marks after values point to notes of the source that are not given here.
# System: full thickness skin
# Experiment: Whole genome array of skin gene expression after topical DBP (time course)
# Format: in vivo, C57BL/6J mice
# Protocol: Mice: C57BL/6J female mice obtained from The Jackson Laboratory were used between 8 and 12 weeks of age.
# Treatment: Mice were untreated or treated topically on the dorsal side of each ear with […] of dibutylphthalate (DBP). At the designated time points after treatment, the animals were euthanized and the ears washed with 70% isopropanol. Full thickness skin was obtained from the dorsal side of both ears and placed immediately in liquid nitrogen. The time between euthanasia and placement of both skin samples in liquid nitrogen was less than 1 minute. Each sample for RNA extraction contained two dorsal ear skin samples obtained from a single mouse both of whose ears received the same treatment.
# RNA Extraction: While in liquid nitrogen, the skin was pulverized with a motorized mortar and pestle (CryoGrinder), transferred by inversion of the mortar directly into 1.5 ml cryogenic vials (Nalgene) and stored in liquid nitrogen until RNA extraction. Total RNA from both ears was extracted by homogenization (Pro200) in TRIzol Reagent (Invitrogen) with 7.5 μg of RNase-free glycogen added to the mixture, according to the manufacturer's directions. The RNA was purified on a solid phase RNeasy MinElute Cleanup column (Qiagen) and eluted with 17 μL of RNase-free water. The samples were stored at −20° C. until use.
# Quantification of RNA: RNA yields were quantified by UV absorption using a NanoDrop NG-1000 spectrophotometer, where 1 AU 260 equals 40 μg RNA/ml. Purity was estimated by the 260 and 280 nm absorbance ratio; values between 1.7 and 2.1 were considered acceptable.
# Assessment of RNA Quality: The quality of sample RNA was assessed using a RNA 6000 LABCHIP Kit on an Agilent 2100 Bioanalyzer. The Bioanalyzer determines the integrity/purity of the RNA samples and permits the screening of total and mRNA sample degradation and ribosomal RNA contamination. An RNA 6000 ladder was also loaded on a specified well and used as a reference for data analysis and a built-in quality control measure. The quality and integrity of the RNA was determined through visual inspection of each electropherogram. In general, only samples with a RIN (RNA integrity number) of 7 or greater, as determined by the Bioanalyzer, were used for gene arrays. This quality control analysis was repeated following the labeling procedure to ensure that the probes were efficiently labeled and had the correct size before hybridization to the chips. All samples that were run on genome wide arrays were obtained as independent duplicates from two individual mice.
# Microarray Data Interpretation: Gene expression was compared between untreated and treated total RNA samples. “Transition” data, which represent the change in expression level for a given gene, are presented as a “weighted difference.” Changes in gene expression level were considered to be significant when the adjusted p values were less than […]. The “gene expression signature” arbitrarily includes only those genes that were transcribed with a weighted increase of 2.0 or greater, which was sustained over the subsequent time points tested.
# The weighted difference is a metric that takes into account both the variability between different time-points and the variability between replicates at the same time-point. The calculations are performed for each time-point transition, i.e., 30 minutes vs. 1 hour, 1 hour vs. 2 hours, etc. There are two steps to the calculation: the calculation of a modified Euclidean difference between the two time-points, and the calculation of the Euclidean difference between the replicates within each time-point. The first measure is an unweighted difference, while the final metric given in the spreadsheet “weights” this difference by taking into account the second measure.
# In a Euclidean difference calculation, each data point is considered as a vector in a multi-dimensional space, and the actual straight-line distance between the data points is calculated. […]
smiles,measurement,setting,value
"CCCCOC(=O)c1ccccc1C(=O)OCCCC [DBP, dibutylphthalate]",% Shared (DBP-induced genes also TLR-induced),15 min,64%
same,"DBP Unique genes, number",15 min,12
same,"TLR-Induced among DBP-induced genes, number",15 min,21^
same,"DBP-Induced genes (≧2x Increased Expression), number","15 min, early response genes",33*
same,Acot5 Change in Gene Expression (Weighted Difference),15 min to 30 min Transition,1.225
same,Akr1c18 Change in Gene Expression (Weighted Difference),15 min to 30 min Transition,−0.6119
same,Atp2c2 Change in Gene Expression (Weighted Difference),15 min to 30 min Transition,0.1754
same,Btg2 Change in Gene Expression (Weighted Difference),15 min to 30 min Transition,5.994
same,Ccr4 Change in Gene Expression (Weighted Difference),15 min to 30 min Transition,−0.287
same,Cdh10 Change in Gene Expression (Weighted Difference),15 min to 30 min Transition,0.1979
same,Cish Change in Gene Expression (Weighted Difference),15 min to 30 min Transition,1.725
same,Cox17 Change in Gene Expression (Weighted Difference),15 min to 30 min Transition,−0.6572
same,Cysltr1 Change in Gene Expression (Weighted Difference),15 min to 30 min Transition,−1.813
same,Egr1 Change in Gene Expression (Weighted Difference),15 min to 30 min Transition,4.967
same,Egr2 Change in Gene Expression (Weighted Difference),15 min to 30 min Transition,1.229
same,Frk Change in Gene Expression (Weighted Difference),15 min to 30 min Transition,−5.361
same,Gbp8 Change in Gene Expression (Weighted Difference),15 min to 30 min Transition,0.5698
same,Gem Change in Gene Expression (Weighted Difference),15 min to 30 min Transition,2.697
same,Gimap7 Change in Gene Expression (Weighted Difference),15 min to 30 min Transition,−0.2249
same,Ier3 Change in Gene Expression (Weighted Difference),15 min to 30 min Transition,12.73
same,Il10ra Change in Gene Expression (Weighted Difference),15 min to 30 min Transition,2.226
same,Jun Change in Gene Expression (Weighted Difference),15 min to 30 min Transition,1.717
same,Junb Change in Gene Expression (Weighted Difference),15 min to 30 min Transition,3.924
same,LOC100046066 Change in Gene Expression (Weighted Difference),15 min to 30 min Transition,−2.104
same,Madcam1 Change in Gene Expression (Weighted Difference),15 min to 30 min Transition,0.2824
same,Med17 Change in Gene Expression (Weighted Difference),15 min to 30 min Transition,−0.2295
same,Mkks Change in Gene Expression (Weighted Difference),15 min to 30 min Transition,−2.533
same,Mndal Change in Gene Expression (Weighted Difference),15 min to 30 min Transition,1.805
same,Myc Change in Gene Expression (Weighted Difference),15 min to 30 min Transition,2.987
same,N6amt2 Change in Gene Expression (Weighted Difference),15 min to 30 min Transition,−0.7998
same,Nr4a1 Change in Gene Expression (Weighted Difference),15 min to 30 min Transition,5.842
same,P2ry1 Change in Gene Expression (Weighted Difference),15 min to 30 min Transition,−2.116
same,Prf1 Change in Gene Expression (Weighted Difference),15 min to 30 min Transition,−0.05377
same,Sik1 Change in Gene Expression (Weighted Difference),15 min to 30 min Transition,2.597
same,Slc39a8 Change in Gene Expression (Weighted Difference),15 min to 30 min Transition,25.27
same,Tmed3 Change in Gene Expression (Weighted Difference),15 min to 30 min Transition,−0.4993
same,Zfp36 Change in Gene Expression (Weighted Difference),15 min to 30 min Transition,10.7
same,% Shared (DBP-induced genes also TLR-induced),30 min,64%
same,"DBP Unique genes, number",30 min,107
same,"DBP-Induced genes (≧2x Increased Expression), number",30 min,297
same,"TLR-Induced among DBP-induced genes, number",30 min,190^#
same,Acot5 Change in Gene Expression (Weighted Difference),30 min to 1 hr Transition,1.878
same,Akr1c18 Change in Gene Expression (Weighted Difference),30 min to 1 hr Transition,1.114
same,Atp2c2 Change in Gene Expression (Weighted Difference),30 min to 1 hr Transition,−0.008704
same,Btg2 Change in Gene Expression (Weighted Difference),30 min to 1 hr Transition,2.926
same,Ccr4 Change in Gene Expression (Weighted Difference),30 min to 1 hr Transition,0.2055
same,Cdh10 Change in Gene Expression (Weighted Difference),30 min to 1 hr Transition,0.2384
same,Cish Change in Gene Expression (Weighted Difference),30 min to 1 hr Transition,1.825
same,Cox17 Change in Gene Expression (Weighted Difference),30 min to 1 hr Transition,−0.02512
same,Cysltr1 Change in Gene Expression (Weighted Difference),30 min to 1 hr Transition,0.06681
same,Egr1 Change in Gene Expression (Weighted Difference),30 min to 1 hr Transition,5.495
same,Egr2 Change in Gene Expression (Weighted Difference),30 min to 1 hr Transition,2.326
same,Frk Change in Gene Expression (Weighted Difference),30 min to 1 hr Transition,3.985
same,Gbp8 Change in Gene Expression (Weighted Difference),30 min to 1 hr Transition,0.1048
same,Gem Change in Gene Expression (Weighted Difference),30 min to 1 hr Transition,3.044
same,Gimap7 Change in Gene Expression (Weighted Difference),30 min to 1 hr Transition,−0.004049
same,Ier3 Change in Gene Expression (Weighted Difference),30 min to 1 hr Transition,7.145
same,Il10ra Change in Gene Expression (Weighted Difference),30 min to 1 hr Transition,0.6152
same,Jun Change in Gene Expression (Weighted Difference),30 min to 1 hr Transition,0.7234
same,Junb Change in Gene Expression (Weighted Difference),30 min to 1 hr Transition,2.771
same,LOC100046066 Change in Gene Expression (Weighted Difference),30 min to 1 hr Transition,2.144
same,Madcam1 Change in Gene Expression (Weighted Difference),30 min to 1 hr Transition,0.046
same,Med17 Change in Gene Expression (Weighted Difference),30 min to 1 hr Transition,0.06201
same,Mkks Change in Gene Expression (Weighted Difference),30 min to 1 hr Transition,0.2811
same,Mndal Change in Gene Expression (Weighted Difference),30 min to 1 hr Transition,0.3272
same,Myc Change in Gene Expression (Weighted Difference),30 min to 1 hr Transition,1.895
same,N6amt2 Change in Gene Expression (Weighted Difference),30 min to 1 hr Transition,0.0833
same,Nr4a1 Change in Gene Expression (Weighted Difference),30 min to 1 hr Transition,1.556
same,P2ry1 Change in Gene Expression (Weighted Difference),30 min to 1 hr Transition,1.47
same,Prf1 Change in Gene Expression (Weighted Difference),30 min to 1 hr Transition,0.5182
same,Sik1 Change in Gene Expression (Weighted Difference),30 min to 1 hr Transition,0.7241
same,Slc39a8 Change in Gene Expression (Weighted Difference),30 min to 1 hr Transition,2.304
same,Tmed3 Change in Gene Expression (Weighted Difference),30 min to 1 hr Transition,−0.1953
same,Zfp36 Change in Gene Expression (Weighted Difference),30 min to 1 hr Transition,2.8
same,% Shared (DBP-induced genes also TLR-induced),1 hr,69%
same,"DBP Unique genes, number",1 hr,26
same,"DBP-Induced genes (≧2x Increased Expression), number",1 hr,83
same,"TLR-Induced among DBP-induced genes, number",1 hr,57^#
same,Acot5 Change in Gene Expression (Weighted Difference),1 hr to 2 hr Transition,12.15
same,Akr1c18 Change in Gene Expression (Weighted Difference),1 hr to 2 hr Transition,−0.2471
same,Atp2c2 Change in Gene Expression (Weighted Difference),1 hr to 2 hr Transition,0.331
same,Btg2 Change in Gene Expression (Weighted Difference),1 hr to 2 hr Transition,−0.01005
same,Ccr4 Change in Gene Expression (Weighted Difference),1 hr to 2 hr Transition,−0.03096
same,Cdh10 Change in Gene Expression (Weighted Difference),1 hr to 2 hr Transition,−0.1519
same,Cish Change in Gene Expression (Weighted Difference),1 hr to 2 hr Transition,0.9334
same,Cox17 Change in Gene Expression (Weighted Difference),1 hr to 2 hr Transition,0.1604
same,Cysltr1 Change in Gene Expression (Weighted Difference),1 hr to 2 hr Transition,−1.794
same,Egr1 Change in Gene Expression (Weighted Difference),1 hr to 2 hr Transition,−0.2127
same,Egr2 Change in Gene Expression (Weighted Difference),1 hr to 2 hr Transition,−0.1057
same,Frk Change in Gene Expression (Weighted Difference),1 hr to 2 hr Transition,−0.2672
same,Gbp8 Change in Gene Expression (Weighted Difference),1 hr to 2 hr Transition,−1.039
same,Gem Change in Gene Expression (Weighted Difference),1 hr to 2 hr Transition,0.6484
same,Gimap7 Change in Gene Expression (Weighted Difference),1 hr to 2 hr Transition,0.1331
same,Ier3 Change in Gene Expression (Weighted Difference),1 hr to 2 hr Transition,0.7786
same,Il10ra Change in Gene Expression (Weighted Difference),1 hr to 2 hr Transition,0.1326
same,Jun Change in Gene Expression (Weighted Difference),1 hr to 2 hr Transition,−0.001533
same,Junb Change in Gene Expression (Weighted Difference),1 hr to 2 hr Transition,−0.0754
same,LOC100046066 Change in Gene Expression (Weighted Difference),1 hr to 2 hr Transition,−0.8577
same,Madcam1 Change in Gene Expression (Weighted Difference),1 hr to 2 hr Transition,−0.04597
same,Med17 Change in Gene Expression (Weighted Difference),1 hr to 2 hr Transition,0.1073
same,Mkks Change in Gene Expression (Weighted Difference),1 hr to 2 hr Transition,−0.1657
same,Mndal Change in Gene Expression (Weighted Difference),1 hr to 2 hr Transition,0.5733
same,Myc Change in Gene Expression (Weighted Difference),1 hr to 2 hr Transition,−0.01449
same,N6amt2 Change in Gene Expression (Weighted Difference),1 hr to 2 hr Transition,−0.07791
same,Nr4a1 Change in Gene Expression (Weighted Difference),1 hr to 2 hr Transition,−0.4734
same,P2ry1 Change in Gene Expression (Weighted Difference),1 hr to 2 hr Transition,−0.5171
same,Prf1 Change in Gene Expression (Weighted Difference),1 hr to 2 hr Transition,−0.3117
same,Sik1 Change in Gene Expression (Weighted Difference),1 hr to 2 hr Transition,0.007769
same,Slc39a8 Change in Gene Expression (Weighted Difference),1 hr to 2 hr Transition,1.188
same,Tmed3 Change in Gene Expression (Weighted Difference),1 hr to 2 hr Transition,−0.2575
same,Zfp36 Change in Gene Expression (Weighted Difference),1 hr to 2 hr Transition,0.1025
same,% Shared (DBP-induced genes also TLR-induced),2 hr,63%
